Assay results reported in ChEMBL document CHEMBL5385875, “Tumor killing by a dietary curcumin mono-carbonyl analog that works as a selective ROS generator via TrxR inhibition” (Eur J Med Chem, 2023).
Active and inactive are the calls of the source. The rule behind the calls is not given here.

Assays:
NCI-H460 [1] = assay: Cytotoxicity against human NCI-H460 cells assessed as reduction in cell viability incubated for 48 hrs by MTT assay; type: functional, cell-based; details: NCI-H460, 48 h
A549 = assay: Cytotoxicity against human A549 cells assessed as reduction in cell viability incubated for 48 hrs by MTT assay; type: functional, cell-based; details: A549, 48 h
HepG2 = assay: Cytotoxicity against human HepG2 cells assessed as reduction in cell viability incubated for 48 hrs by MTT assay; type: functional, cell-based; details: HepG2, 48 h
HT-1080 = assay: Cytotoxicity against human HT-1080 cells assessed as reduction in cell viability incubated for 48 hrs by MTT assay; type: functional, cell-based; details: HT-1080, 48 h
[2] = Cytotoxicity against human MRC5 cells assessed as reduction in cell viability incubated for 48 hrs by MTT assay; type: toxicity, cell-based
[3] = Selectivity index, ratio of IC50 for human MRC5 cells to IC50 for human NCI-H460 cells; type: toxicity; details: MRC5 cells versus NCI-H460 cells, read-out: Ratio IC50
NCI-H460 [4] = assay: Induction of intracellular ROS accumulation in human NCI-H460 cells at 2 uM measured after 6 hrs by DCFH-DA dye based fluorescence assay; type: functional, cell-based
NCI-H460 [5] = assay: Induction of ROS accumulation in human NCI-H460 cells assessed as reduction in GSH levels by measuring yellow green fluorescence incubated for 9 hrs by fluorescence microscope based analysis; type: functional, cell-based
[6] = target: Thioredoxin reductase (Homo sapiens) (UniProt Q16881+Q9NNW7+Q86VQ6); assay: Inhibition of TrxR in human NCI-H460 cells at 2 uM measured after 6 hrs by fluorescence microscopy based analysis; type: cell-based

Row | Compound | IC50 (NCI-H460 [1]) [µM] | IC50 (A549) [µM] | IC50 (HepG2) [µM] | IC50 (HT-1080) [µM] | IC50 at 48 h [2] [µM] | selectivity ratio [3] | Activity (NCI-H460 [4]) | Activity (NCI-H460 [5]) | inhibition [6]
1 | O=C1/C(=C/c2ccc(C(F)(F)F)cc2)CCC/C1=C\c1ccc(C(F)(F)F)cc1 | 14.4 | 2.97 | > 100 | 7.2 | 47.7 | 3.32 | – | – | –
2 | COc1ccc(/C=C2\CCC/C(=C\c3ccc(OC)cc3)C2=O)cc1 | > 100 | > 100 | > 100 | > 100 | > 100 | – | – | – | –
3 | O=C1/C(=C/c2cccc(C(F)(F)F)c2)CCC/C1=C\c1cccc(C(F)(F)F)c1 | 6.06 | 3.96 | 3.54 | 6.34 | 21.9 | 3.62 | – | – | –
4 | COc1cc(/C=C/C(=O)CC(=O)/C=C/c2ccc(O)c(OC)c2)ccc1O [CURCUMIN] | – | 44.8 | 22.8 | 21.9 | 51.2 | 2.52 | inactive | inactive | inactive
5 | COc1ccccc1/C=C1\CN(C)C/C(=C\c2ccccc2OC)C1=O | 8.39 | 6.81 | 10.7 | 9.62 | 17 | 2.03 | – | – | –
6 | COc1ccc(/C=C2\CNC/C(=C\c3ccc(OC)cc3)C2=O)cc1 | > 100 | > 100 | > 100 | > 100 | > 100 | – | inactive | – | –
7 | COc1cccc(/C=C2\CNC/C(=C\c3cccc(OC)c3)C2=O)c1 | 7.93 | 14.3 | 5.19 | 20 | 9.11 | 1.23 | inactive | – | –
8 | O=C1/C(=C/c2ccccc2)CCC/C1=C\c1ccccc1 [2,6-DIBENZYLIDENECYCLOHEXANONE] | 50.5 | 26.3 | 28.5 | 32.6 | > 100 | – | – | – | –
9 | O=C1/C(=C/c2ccccc2)CNC/C1=C\c1ccccc1 | 2.34 | 7.36 | 1.38 | 5.41 | 4.85 | 2.07 | inactive | inactive | inactive
10 | CN1C/C(=C\c2cccc(C(F)(F)F)c2)C(=O)/C(=C/c2cccc(C(F)(F)F)c2)C1 | 2.94 | 1.08 | 1.12 | 3.86 | 9.25 | 3.15 | – | – | –
11 | CN1C/C(=C\c2ccccc2)C(=O)/C(=C/c2ccccc2)C1 | 26.9 | 11.3 | 10.6 | 3.82 | 31.3 | 1.16 | – | – | –
12 | COc1ccccc1/C=C1\CCC/C(=C\c2ccccc2OC)C1=O | 79.8 | 66.8 | 60.1 | > 100 | > 100 | – | – | – | –
13 | COc1cccc(/C=C2\CCC/C(=C\c3cccc(OC)c3)C2=O)c1 | 16.4 | 11.6 | 14 | 22.2 | 46 | 2.81 | – | – | –
14 | O=C1/C(=C/c2ccc(C(F)(F)F)cc2)CNC/C1=C\c1ccc(C(F)(F)F)cc1 | 7.11 | 2.02 | 37.1 | 5.48 | 8.65 | 1.22 | inactive | – | –
15 | O=c1[nH]cc(F)c(=O)[nH]1 [FLUOROURACIL] | 24.8 | – | – | – | 246 | 9.89 | – | – | –
16 | O=C1/C(=C/c2ccccc2C(F)(F)F)CCC/C1=C\c1ccccc1C(F)(F)F | > 100 | > 100 | > 100 | > 100 | > 100 | – | – | – | –
17 | COc1cccc(/C=C2\CN(C)C/C(=C\c3cccc(OC)c3)C2=O)c1 | 5.68 | 1.18 | 1.36 | 1.99 | 13.4 | 2.37 | – | – | –
18 | CN1C/C(=C\c2ccc(C(F)(F)F)cc2)C(=O)/C(=C/c2ccc(C(F)(F)F)cc2)C1 | 2.2 | 1.58 | 1.01 | 2.03 | 4.76 | 2.16 | – | – | –
19 | CC[C@@]1(O)C(=O)OCc2c1cc1n(c2=O)Cc2cc3ccccc3nc2-1 [CAMPTOTHECIN] | 0.79 | – | – | – | 9.02 | 11.4 | – | – | –
20 | COc1ccccc1/C=C1\CNC/C(=C\c2ccccc2OC)C1=O | 2.88 | 3.32 | 1.93 | 35.9 | 3.67 | 1.27 | inactive | – | –
21 | O=C1/C(=C/c2ccccc2C(F)(F)F)CNC/C1=C\c1ccccc1C(F)(F)F | > 100 | > 100 | > 100 | > 100 | > 100 | – | inactive | – | –
22 | CN1C/C(=C\c2ccccc2C(F)(F)F)C(=O)/C(=C/c2ccccc2C(F)(F)F)C1 | > 100 | > 100 | > 100 | 49.5 | > 100 | – | – | – | –
23 | COc1ccc(/C=C2\CN(C)C/C(=C\c3ccc(OC)cc3)C2=O)cc1 | > 100 | > 100 | > 100 | > 100 | > 100 | – | – | – | –
